Reference: patent US11090349B2, “Plant extract obtained from Morus plant leaves, compositions containing same, method of extraction and uses thereof” (Botanic Century (Beijing) Co. Ltd., priority 2009, dated 2021)

Legend:
Wistar rats = experiment: Blood glucose of Wistar rats after starch meal; assay type: in vivo, Wistar rat; conditions: positive control 25 mg/kg
Protocol: The reagents and apparatus are set out below: • (1) Mulberry leaf extract of Example 1 • (2) Saline • (3) Miglitol standard reference chemical • (4) 64 Wistar rats • (5) Johnson's One Touch Ultra blood glucose meter and Code 9 blood glucose test strips The method used was as set out below:
Animals received Morus extract via intraperitoneal injection (15 mg/kg or 30 mg/kg) or intragastrically (25 mg/kg or 50 mg/kg). Miglitol (Glyset®) (25 mg/kg), an α-glucosidase inhibitor approved for type-2 diabetes was used as a positive control. Fasted blood-sugar levels were recorded as a baseline, and blood sugar levels were measured at time intervals 05.hr, 1 hr and 2 hrs after receiving a starch meal. The animals were dosed with Morus extract prior to receiving the starch meal.

B16 melanoma cells [1] = experiment: Melanin content in B16 melanoma cells; assay type: cell-based; conditions: different concentrations
Protocol: The aim was to investigate the impact of the test samples on melanin content of melanoma cell line B16. […] The method was as set out below: • 1. Harvest the melanoma B16 cells at Log phase and adjust the cell suspension to an appropriate concentration, divide into 24 well plates and allow the cells to adhere to the walls. • 2. […] Add 250 μl WIP lysis buffer and allow to lyse in an ice bath, vortex mixing once every 5 min for 4-5 times. • 4. Centrifuge for 10 min at 12000 rpm at 4° C. Discard the supernatant and dissolve the precipitate with 400 μl 1N NaOH and keep it in a 80° C. water bath for 1 hour. • 5. Use a microplate reader to measure OD value at 405 nm, and calculate the relative content. Results and discussion: The B16 melanoma cells were seeded at a density of 4×10^4 cell per well of 24-well culture plates, incubated at 37° C. under 5% CO2 atmosphere for 24 h. […] The cells were washed with phosphate-buffered saline, collected in centrifuge tube. After centrifugation, cell pellets were disrupted in WIP lysis buffer containing phenylmethylsulfonyl fluoride (PMSF) on ice for 30 min. The solution was centrifuged for 10 min at 12000 g at 4° C., the pellets were dissolved in 1N NaOH by boiling for 1 h at 70° C. The melanin content was assayed at 405 nm in a spectrophotometer.

B16 melanoma cells [2] = experiment: Cell viability, MTT assay; assay type: cell-based; conditions: for growth inhibition of B16 melanoma cells (MTT): below the concentration of 200 ppm
Protocol: Cell survival was measured using the MTT assay, which is based on the conversion of 3-(4,5-dimethylthiazol-2-yl)-2,5-diphenyltetrazolium bromide to MTT-formazan crystal by mitochondrial enzyme in viable cells. MTT was freshly prepared at 2 mg/ml in phosphate-buffered saline (PBS). […] Aliquots of 20 μl of MTT stock solution were added to the well at different time points throughout the experiment, and the plate was incubated at 37° C. for 4 h in a humidified 5% CO2 incubator. After 4 h, the formazan crystals of these cells were solubilized in 100 μl DMSO by gentle shaking. After 10 min, the amount of formazan was quantified spectrophotometrically using an ELISA plate reader at 540 nm.

tyrosinase [3] = biological target: T1, tyrosinase (Mus musculus, UniProt P11344); experiment: Direct effect on tyrosinase catalytic activity in B16 cell extract; assay type: biochemical; conditions: incubated 1 hour at 37° C., L-dopa
T1 construct: supernatant (cell extract) containing the cellular components being retained for assay purposes; endogenous in cells; host or cells: B16 melanoma cells
T1 sequence (P11344 19-533): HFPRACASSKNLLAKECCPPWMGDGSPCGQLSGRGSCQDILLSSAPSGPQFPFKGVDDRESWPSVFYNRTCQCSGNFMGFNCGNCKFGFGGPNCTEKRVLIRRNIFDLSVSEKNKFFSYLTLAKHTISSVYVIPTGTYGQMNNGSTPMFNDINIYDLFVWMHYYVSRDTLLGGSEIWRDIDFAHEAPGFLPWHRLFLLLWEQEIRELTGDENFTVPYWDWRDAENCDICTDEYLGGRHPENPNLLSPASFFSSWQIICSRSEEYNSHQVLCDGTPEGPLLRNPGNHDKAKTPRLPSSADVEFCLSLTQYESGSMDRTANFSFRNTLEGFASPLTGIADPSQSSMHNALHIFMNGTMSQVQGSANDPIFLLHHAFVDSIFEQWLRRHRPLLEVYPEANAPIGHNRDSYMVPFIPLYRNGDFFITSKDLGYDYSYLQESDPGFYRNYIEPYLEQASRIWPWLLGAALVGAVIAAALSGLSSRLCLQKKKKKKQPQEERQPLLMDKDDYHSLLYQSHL
Protocol: (§1) The aim was to investigate the impact and mechanisms of action of the test samples on the TYR activity in melanoma cell line B16.
(§2) B16 melanoma cells were washed with phosphate-buffered saline and collected in a centrifuge tube. After centrifugation, WIP-lysis buffer containing phenyl-methylsulfonyl fluoride (PMSF) was added to the cell pellet to lyse the cells and the solution was left to stand on ice for 30 minutes. The solution was subsequently centrifuged for 10 min, at 12000 g, at 4° C., with the supernatant (cell extract) containing the cellular components being retained for assay purposes.
The plate was incubated at 37° C. for 1 hour, and then 80 μl L-dopa was added to each well. The absorbance (492 nm) of each well was recorded at 5 minute intervals for 30 minutes at 37° C. using a microplate reader.

tyrosinase [4] = experiment: Indirect effect on tyrosinase activity, B16 cells cultured with sample for three days; assay type: cell-based; conditions: B16 cells incubated three days with test compound before extraction
Protocol: as §1, §2

Row | SMILES | Blood glucose 0.5 h after giving starch (Wistar rats) [mmol/L] | Blood glucose 1 h after giving starch (Wistar rats) [mmol/L] | Blood glucose 2 h after giving starch (Wistar rats) [mmol/L] | Fasted Glucose (Wistar rats; baseline) [mmol/L] | content of melanin compared to the control (B16 melanoma cells [1]) | concentration above which viability of the cell decreased (B16 melanoma cells [2]; B16 melanoma cell) | growth inhibition of B16 melanoma cells (MTT) (B16 melanoma cells [2]) | direct effect on tyrosinase activity (tyrosinase [3]) | indirect effect on tyrosinase activity (tyrosinase [4])
1 | OCCN1C[C@H](O)[C@@H](O)[C@H](O)[C@H]1CO [Miglitol] | 2.27 ± 0.71 | 2.98 ± 0.52 | 2.69 ± 0.35 | 3.04 ± 0.74 | – | – | – | – | –
2 | O=C1O[C@H]([C@@H](O)CO)C([O-])=C1OP(=O)([O-])[O-].O=C1O[C@H]([C@@H](O)CO)C([O-])=C1OP(=O)([O-])[O-].[Mg+2].[Mg+2].[Mg+2] [VC-PMG, magnesium L-ascorbyl-2-phosphate] | – | – | – | – | decreased significantly in a dose-dependent manner | over 200 ppm | no growth inhibition | – | –
3 | OC[C@H]1O[C@@H](Oc2ccc(O)cc2)[C@H](O)[C@@H](O)[C@@H]1O [arbutin] | – | – | – | – | – | – | – | reduced the activity of tyrosinase in a dose-dependent manner | no effect on tyrosinase activity
4 | OCC1NCC(O)C(O)C1O (stereo not shown) [DNJ, 1-deoxynojirimycin] | – | – | – | – | decreased significantly in a dose-dependent manner | – | no growth inhibition | no effect on tyrosinase activity | dose-dependent decrease in tyrosinase activity
